Measurements: US20210267948A1, “TREATMENT OF CANCER” (CITY OF HOPE, priority 2017, published 2021)

Legend:
HCC1937+BRCA1 tumors = experiment: Orthotopic tumor model, HCC1937+BRCA1; type: in vivo, mouse; details: HCC1937+BRCA1 in mammary fat pads, NSG mice, daily oral 400 mg/kg, 28 days
Protocol: Orthotopic Tumor Model. Experiments in mice were conducted under a protocol approved by the IACUC of City of Hope. Because HCC1937 and HCC1937+BRCA1 cells form slow-growing tumors, they were implanted using MATRIGEL™ (Becton-Dickinson Biosciences). To establish tumors, 4×10^6 cells in 200 μL serum-free medium containing 50% MATRIGEL™ were injected into the mammary fat pads around the inguinal area of a pair of 8 week old female NSG mice. Once the initial tumors reached 13 mm in diameter, they were dissected out, minced into 3 mm pieces and implanted into the inguinal area of the mammary fat pads of the experimental mice. Tumors were measured over a 28-day period, and for each time point, the student t-test was used to determine the statistical significance between daily gavage with 400 mg/kg COH29 in 30% solutol and corresponding vehicle control. Thep value less than 0.05 (2 sides) was considered to indicate statistical significance

[1] = tested on: human cancer cells resistant to gemcitabine, hydroxyurea or cisplatin; experiment: Growth of drug-resistant human cancer cells; type: cell-based; details: KB-Gem, KBHURs and others, 72 h
Protocol: FIGS. 11A-11B depict the activity of COH29 in gemcitabine (KB-Gem) (FIG. 11A) and hydroxyurea (KBHURs) (FIG. 11B) resistant cell lines in 72 h toxicity assay. Hydroxyurea (concentration 2-50 mmol/L), gemcitabine (concentration 20-500 μmon), and COH29 (concentration 2-250 μmon) were used for real-time growth curves for KBHUR and gemcitabine, respectively, based on comparison of 72-h viability of hydroxyurea-resistant or gemcitabine-resistant cells to COH29.

[2] = GLP toxicity study in rats; type: in vivo; details: for Toxicity: Sprague-Dawley rats, top dose 125 mg/kg
Text: (§1) Toxicity studies in rats and dogs at doses equivalent to 10× that dose have not shown toxicity at 10 or 21 days.

HCC1937 = experiment: Microarray gene ontology enrichment, HCC1937; type: cell-based, human; details: genes downregulated, HCC1937-COH29 vs HCC1937
Protocol: FDR values were calculated using the method of Benjamini and Hochberg (28) from the distribution of ANOVA with Linear Contrastp-values. Gene ontology (GO) (29) enrichment analysis was performed within PARTEK® GENOMICS SUITE™, and GO categories were defined significant with a Fisher Exact test p-value<0.05.
To identify the mechanism through which COH29 preferentially lyses BRCA1-mutant human cancer cells, genome-wide microarray analysis was performed using the AFFYMETRIX® GENECHIP® microarray platform to identify the gene expression profiles and pathways affected by COH29 treatment. The RNA expression profile of COH29 treated HCC1937 breast cancer cells lacking BRCA1 was compared with that of COH29 treated HCC1937+BRCA1 cells. […] For example, DNA ligation involved in DNA repair is more strongly enriched in HCC1937 cells which may relate to the phenotypic effect.

EJ5 cells (NHEJ pathway) = experiment: NHEJ repair GFP reporter (EJ5-GFP); type: cell-based; details: 24 h
Protocol: The EJ2 cells were generated to evaluate Alt-NHEJ through monitoring the fluorescence intensity of GFP, and EJ5 cells were used to determine NJEJ, as described previously (23). Cells were seeded into 6-well plate and treated with COH29 or cisplatin at different concentration for 24 hours. The cells were then trypsinized, washed, and analyzed by flow cytometry.

tumor xenografts = experiment: Pilot tumor xenograft study; type: in vivo; details: daily oral administration, IL2-rg(KO)/NOD-Scid mice
Text: as §1

PARP1 = molecular target: T1, PARP1 (Homo sapiens, UniProt P09874); experiment: PARP1 Chemiluminescent Assay on lysates of treated cells; type: cell-based
T1 construct: endogenous in cells; host or cells: HCC1937, HCC1937+BRCA1, UWB1.289 and UWB1.289+BRCA1 human cancer cells (lysates)
Protocol: The PARP1 activity was determined using the PARP1 Chemiluminescent Assay Kit (BPS Bioscience, San Diego) according to the manufacturer's protocol. Briefly, the ribosylation reaction was carried out with activated DNA in PARP assay buffer using test inhibitor, positive control, substrate control and blank reactions, for 1 hour at 25° C. Detection was by streptavidin-HRP with chemiluminescent substrate A and B read in a luminometer. NZebrafish (Danio rerio) were obtained from zebrafish Core facility of Taipei Medical University and maintained at 28° C. on a 14 h light/10 h dark cycle. Embryos were incubated at 28° C. and different developmental stages were determined as described (25). Wild-type embryos were treated with different concentrations of HU (0, 5, 10, 20, 50 mM) or COH29 (0, 10, 20, 50, 100 μM) at 20 hpf to evaluate the mutagenic effect. Fifteen embryos were treated per well condition. […] Embryos were observed using an Olympus IX70-FLA inverted fluorescence microscope. Images were taken using SPOT digital camera system (Diagnostic Instruments, Sterling Heights, Mich., USA) and assembled with Image) software (26).
To determine if COH29 inhibited hPARP1, PARP1 activity was examined in lysates of cells treated with or without COH29 for 4 h, 8 h or 24 h.

TOV112D xenograft tumors = experiment: TOV112D mouse xenograft; type: in vivo; details: oral 200, 300 or 400 mg/kg, 7 days
Protocol: FIGS. 12A-12D depict the activity of COH29 in mouse xenografts. Cancer cells were implanted and allowed to grow at the subcutaneous site until the tumor was measurable. Subcutaneous xenograft growth curves for leukemic-(MOLT-4) mice treated for 12 days with oral COH29 in twice-daily dosing at 50 and 100 mg/kg (FIG. 12A) and for ovarian cancer bearing mice (TOV112D) treated for 7 days with 200, 300, or 400 mg/kg of oral COH29 (FIG. 12B) (shown are the average±SDs for 4 animals/group). FIG. 12C depicts the activity of RNR in MOLT-4 tumor xenografts from mice treated with vehicle (solutol-15) or 100 mg/kg of oral COH29 for 12 days. FIG. 12D depicts the effect of oral COH29 on intratumoral dTNP pools from MOLT-4 tumor xenografts.

[3] = HCC1937 lacking BRCA1, 24 h incubation
[4] = UWB1.289 lacking BRCA1, 8 h treatment

T1 sequence (P09874 whole entry): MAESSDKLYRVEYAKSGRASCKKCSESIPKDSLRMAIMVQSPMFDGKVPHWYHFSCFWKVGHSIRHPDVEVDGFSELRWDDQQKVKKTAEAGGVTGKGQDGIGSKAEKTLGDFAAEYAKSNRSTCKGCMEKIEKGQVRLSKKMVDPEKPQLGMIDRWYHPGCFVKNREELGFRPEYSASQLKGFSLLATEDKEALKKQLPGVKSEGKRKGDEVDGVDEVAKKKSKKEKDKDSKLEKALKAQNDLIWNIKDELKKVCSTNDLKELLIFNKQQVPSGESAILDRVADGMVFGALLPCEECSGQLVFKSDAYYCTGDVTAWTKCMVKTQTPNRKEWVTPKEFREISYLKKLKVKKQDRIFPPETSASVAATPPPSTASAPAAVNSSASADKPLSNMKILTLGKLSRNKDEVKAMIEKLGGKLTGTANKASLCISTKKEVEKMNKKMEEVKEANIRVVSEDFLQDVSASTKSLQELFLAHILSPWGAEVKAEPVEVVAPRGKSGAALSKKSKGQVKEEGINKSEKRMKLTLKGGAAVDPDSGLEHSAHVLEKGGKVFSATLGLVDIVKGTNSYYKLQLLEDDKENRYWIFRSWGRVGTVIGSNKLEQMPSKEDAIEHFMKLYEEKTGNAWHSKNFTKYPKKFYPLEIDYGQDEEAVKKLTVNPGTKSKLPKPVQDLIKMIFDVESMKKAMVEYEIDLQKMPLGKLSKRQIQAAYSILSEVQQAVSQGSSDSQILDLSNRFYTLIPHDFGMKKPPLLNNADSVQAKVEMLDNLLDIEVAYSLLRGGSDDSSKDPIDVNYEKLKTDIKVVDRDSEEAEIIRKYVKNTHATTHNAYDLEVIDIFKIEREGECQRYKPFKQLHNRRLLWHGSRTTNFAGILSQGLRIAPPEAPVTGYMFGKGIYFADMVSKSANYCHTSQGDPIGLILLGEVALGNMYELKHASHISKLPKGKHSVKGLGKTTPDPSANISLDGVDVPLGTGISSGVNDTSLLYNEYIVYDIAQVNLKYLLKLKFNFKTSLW

O=C(Nc1nc(-c2ccc(O)c(O)c2)c(-c2ccccc2)s1)c1ccc(O)c(O)c1 [COH29, N-(4-(3,4-dihydroxyphenyl)-5-phenylthiazol-2-yl)-3,4-dihydroxybenzamide]
tumor size vs vehicle controls (HCC1937+BRCA1 tumors): not significantly smaller | growth of resistant cancer cells [1]: suppresses the growth | Toxicity ([2]; 10 days): none | Toxicity ([2]; 21 days): none | NOAEL ([2]; Sprague-Dawley, rat, in vivo): 250 mg/kg/day | Genes (n): DNA ligation involved in DNA repair (HCC1937): 3 | Genes (n): DNA repair (HCC1937): 17 | Genes (n): DSB repair (HCC1937): 7 | Genes (n): DSB repair via HR (HCC1937): 5 | Genes (n): DSB repair via NHEJ (HCC1937): 2 | NHEJ repair efficiency (EJ5 cells (NHEJ pathway)): little effect | lowest dose observed to inhibit growth of tumor xenografts (tumor xenografts): 50 mg/kg | PARP1 activity decreased by (PARP1; HCC1937+BRCA1, 24 h incubation): 12.66% | PARP1 activity, COH29 treated (PARP1; HCC1937+BRCA1, 24 h incubation): 2041097 cps | PARP1 activity decreased by (PARP1; [3]): 41.08% | PARP1 activity, COH29 treated (PARP1; [3]): 427851 cps | PARP1 activity rose by (PARP1; UWB1.289+BRCA1, 8 h treatment): 46.31% | PARP1 activity, COH29 treated (PARP1; UWB1.289+BRCA1, 8 h treatment): 2129944 cps | PARP1 activity decreased by (PARP1; [4]): 31.79% | PARP1 activity, COH29 treated (PARP1; [4]): 774611 cps | xenograft tumor growth (TOV112D xenograft tumors): inhibited
